Tests used:
[1] = Highest frequency of moderate liver toxicity observed during clinical trials, expressed as a percentage. [column '% BIOL' in source]; settings: human
[2] = Highest frequency of acute liver toxicity observed during clinical trials, expressed as a percentage. [column '% AIGUE' in source]; settings: human
[3] = Comments (NB not yet translated). [column 'COMMENTAIRES' in source]; settings: human
[4] = Times to onset, minimal and maximal, observed in the indexed observations. [column 'DELAI' in source]; settings: human
[5] = human, serum
[6] = human, serum; remark: listed apart in the source
[7] = human
[8] = human; remark: listed apart in the source
[9] = human; remark: listed apart in the source
[10] = human, serum, 4383 h
[11] = human; remark: listed apart in the source
[12] = human; remark: listed apart in the source
[13] = human; remark: listed apart in the source
[14] = human; remark: listed apart in the source
[15] = human; remark: listed apart in the source
[16] = human; remark: listed apart in the source
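Throughout, for Hepatotoxicity (association with vascular disease): count of indexed literature references reporting vascular liver injury in humans, e.g. peliosis hepatitis, hepatic veno-occlusive disease or Budd-Chiari syndrome.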
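Throughout, for Hepatotoxicity (benign tumour): value is a count of indexed literature references citing a benign tumour confirmed by histopathology.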
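Throughout, for Hepatotoxicity (choleostasis): human cholestatic liver injury, shown by histopathology or by peak ALT or AST elevation over alkaline phosphatase ratio below 2, value counts indexed literature reports.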
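Throughout, for Hepatotoxicity (chronic liver disease): chronic liver injury confirmed by histopathology or persistently raised serum aminotransferase activity beyond 6 months, value given as the count of indexed literature references.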
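Throughout, for Hepatotoxicity (cirrhosis): value is a count of indexed literature references reporting cirrhosis confirmed by histopathology.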
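Throughout, for Hepatotoxicity (cytolytic): human cytolytic liver injury, shown by histopathology or by a ratio above 5 of peak ALT or AST elevation to alkaline phosphatase elevation, value counts indexed references.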
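Throughout, for Hepatotoxicity (granulomatous hepatitis): value is a count of indexed literature references reporting granulomatous liver disease confirmed by histopathology.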
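Throughout, for Hepatotoxicity (malignant tumour): malignant tumour confirmed by histopathology, value gives the count of indexed literature references reporting it.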
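Throughout, for Hepatotoxicity (severe hepatitis): human clinical data: severe hepatitis, meaning potentially life-threatening liver failure or clinically observed cases, the value counts how many indexed literature references report it.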
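Throughout, for Hepatotoxicity (steatosis): steatosis confirmed by histopathology, value is the count of indexed references.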

| Compound | Hepatotoxicity (moderate) [1] [%] | Hepatotoxicity (acute) [2] [%] | Hepatotoxicity (comment) [3] | Hepatotoxicity (time to onset) [4] | Hepatotoxicity (moderate) [5] | Hepatotoxicity (acute) [6] | Hepatotoxicity (cytolytic) [7] | Hepatotoxicity (choleostasis) [8] | Hepatotoxicity (severe hepatitis) [9] | Hepatotoxicity (chronic liver disease) [10] | Hepatotoxicity (cirrhosis) [11] | Hepatotoxicity (granulomatous hepatitis) [12] | Hepatotoxicity (association with vascular disease) [13] | Hepatotoxicity (steatosis) [14] | Hepatotoxicity (malignant tumour) [15] | Hepatotoxicity (benign tumour) [16] |
| --- | --- | --- | --- | --- | --- | --- | --- | --- | --- | --- | --- | --- | --- | --- | --- | --- |
| C[C@]12COC(=O)C[C@@H]1CC[C@@H]1[C@@H]2CC[C@@]2(C)[C@H]1CC[C@]2(C)O [OXANDROLONE] | 0 | 0 | HNF | 6 months | 0 | 2 | 0 | 2 | 0 | 0 | 0 | 0 | 0 | 0 | 0 | 1 |
| CCCCC1C(=O)N(c2ccccc2)N(c2ccc(O)cc2)C1=O (stereo not given) [OXYPHENBUTAZONE ANHYDROUS] | 0 | 0 | RC/PHENYLBUTAZONE | 1 week - 2 months | 3 | 9 | 4 | 3 | 3 | 0 | 1 | 5 | 0 | 1 | 0 | 0 |
| C1CCC(C(CC2CCCCN2)C2CCCCC2)CC1 (stereo not given) [PERHEXILINE] | 30 | 0 | I/AMIODARONE/BEZAFIBRATE/PAROXETINE INCLUSIONLAMELLAIRE | 3 weeks - 12 years | 18 | 11 | 9 | 2 | 5 | 1 | 22 | 1 | 0 | 10 | 0 | 0 |
| CC(Cc1ccccc1)NN (stereo not given) [PHENIPRAZINE] | 0 | 0 | RC/NIALAMIDE/IPRONIAZIDE | 2 weeks - 7 months | 0 | 7 | 7 | 0 | 5 | 0 | 0 | 0 | 0 | 0 | 0 | 0 |
| CCc1ccc(CCOc2ccc(CC3SC(=O)NC3=O)cc2)nc1 (stereo not given) [PIOGLITAZONE] | 0.4 | 0 | CHOLESTASE_PROLONGEE PERICHOLANGIOLITE CHOLANGIOLITE | 23 days - 7 months | 3 | 5 | 3 | 3 | 1 | 0 | 0 | 0 | 0 | 0 | 0 | 0 |
| C[C@]12C=CC(=O)C=C1CC[C@@H]1[C@@H]2[C@@H](O)C[C@@]2(C)[C@H]1CC[C@]2(O)C(=O)CO [PREDNISOLONE] | 0 | 0 | AGGRAVATION_ANGIOMES | 6 days - 8 years | 0 | 2 | 2 | 0 | 2 | 0 | 0 | 0 | 0 | 2 | 0 | 1 |
| CN1CCN(CCCN2c3ccccc3Sc3ccc(Cl)cc32)CC1 [PROCHLORPERAZINE] | 0 | 0 | I/IPRONIAZIDE CHOLESTASE_PROLONGEE DUCTOPENIE | 1 week - 4 months | 0 | 9 | 3 | 6 | 3 | 3 | 0 | 0 | 0 | 0 | 0 | 0 |
| CC(=O)[C@H]1CC[C@H]2[C@@H]3CCC4=CC(=O)CC[C@]4(C)[C@H]3CC[C@]12C [PROGESTERONE] | 13.3 | 0 | HNF | 1 week - 40 weeks | 2 | 3 | 2 | 1 | 0 | 0 | 0 | 0 | 0 | 0 | 0 | 1 |
| O=C(c1ccc(OCCN2CCCCC2)cc1)c1c(-c2ccc(O)cc2)sc2cc(O)ccc12 [RALOXIFENE] | 16.7 | 0 | CHOLESTASE_PROLONGEE | 30 days | 1 | 1 | 0 | 1 | 0 | 0 | 0 | 0 | 0 | 0 | 0 | 0 |
| Cc1nc2n(c(=O)c1CCN1CCC(c3noc4cc(F)ccc34)CC1)CCCC2 [RISPERIDONE] | 6 | 4 | PERICHOLANGITE HYPERBILIRUBINEMIE | 2 days - 1 year | 4 | 6 | 5 | 2 | 0 | 0 | 0 | 0 | 0 | 4 | 0 | 0 |

From ChEMBL document CHEMBL3137667, “[Drug-induced liver injury; fourteenth updated edition of the bibliographic database of liver injuries and related drugs]” (Gastroenterol Clin Biol, 2004)
